For series [1], the system named is Maximal electroshock seizures. The series can be described thus: MES maximal electroshock seizure test, mice ip. The series is classed as in vivo. The conditions noted are these: for responders at 100 mg/kg / responders at 300 mg/kg / responders at 10 mg/kg: Mus musculus, ip; for responders at 100 mg/kg / responders at 10 mg/kg: read-out: MES, animals protected/tested (converted); for responders at 300 mg/kg: read-out: MES, animals protected/tested; for responders at 10 mg/kg: mice ip; for anti-MES protecting ability: Phase I. Here is the method:
Three tests were performed:
1. MES--Electroshock Seizure Test
(§1) Maximal electroshock seizures are elicited with a 60-cycle alternating current of 50 mA intensity (5-7 times that necessary to elicit minimal electroshock seizures) delivered via corneal electrodes for 0.2 seconds. A drop of 0.9% saline is instilled in the eye prior to application of the electrodes in order to […].

The nature of another series: in vivo. The following applies: rat, po; for Tox, animals toxic/tested: 50 mg/kg. An excerpt: (§2) This oral screen is designated as phase VI.
Another series deals with seizures. The series can be described thus: Anticonvulsant evaluation (ASP phase I / overall). The series is classed as in vivo, mice. The following applies: for minimal effective dose: Mus musculus, ip, Phase I, read-out: ASP Classification. How it is done: The first phase of the ADD Program involved performing tests on male Carworth Farms #1 mice. […] Three tests were performed:
as §1
The animal is observed for 30 minutes.

In series [2] the test system is Maximal electroshock seizures. The series can be described thus: Phase VI oral MES test, rats. The following applies: oral; for responders at 50 mg/kg: Rattus norvegicus, read-out: MES, animals protected/tested (converted). The series is classed as in vivo.
Text: as §1, §2

Series [3] deals with Subcutaneous Pentylenetetrazol seizure. Nature of the series: sc Met subcutaneous pentylenetetrazol (Metrazol) seizure test, mice. The conditions noted are these: Mus musculus, sc, read-out: scMet, animals protected/tested (converted). The series is classed as in vivo.

Read-outs that look alike come from different tables or passages of the source.

`COC(=O)C1C(=O)C=C(Nc2ccc(F)cc2)CC1C` (stereo not drawn) [Compound 112]: the responders at 100 mg/kg is 66.7% in series [1] (0.5 h, 30 min); 0% in series [1] (4 h, 4 h); 0% in series [3] (0.5 h, 30 min); 0% in series [3] (4 h, 4 h). The responders at 300 mg/kg in series [1] (0.5 h, 30 min) is 100%; in series [1] (4 h, 4 h), 100%; in series [3] (0.5 h, 30 min), 0%; in series [3] (4 h, 4 h), 0%. Also, the “Tox, animals toxic/tested” value in the series “in vivo” is 0/4. In the series with seizures, the minimal effective dose was under 100 mg/kg. Moreover, the responders at 50 mg/kg is 100% in series [2] (0.5 h, 0.50 h); 100% in series [2] (0.25 h); 100% in series [2] (1.00 h); 100% in series [2] (2.00 h); 100% in series [2] (4.00 h).
With `COC(=O)C1C(=O)C=C(Nc2ccc(Cl)cn2)CC1C` (stereo not drawn) [Compound 116], the responders at 10 mg/kg was 75% in series [1] (0.25 h, 0.25 h); 100% in series [1] (0.5 h, 0.50 h); 50% in series [1] (1 h, 1.00 h); 0% in series [1] (2 h, 2.00 h); 0% in series [1] (4 h, 4.00 h). Further, the responders at 100 mg/kg in series [1] (0.5 h, 30 min) is 66.7%; in series [1] (4 h, 4 h), 0%; in series [3] (0.5 h, 30 min) it was 0%; in series [3] (4 h, 4 h) it was 0%. Further, the responders at 300 mg/kg in series [1] (0.5 h, 30 min) was 100%; in series [1] (4 h, 4 h), 0%; in series [3] (0.5 h, 30 min, second trial) it was 75%; in series [3] (0.5 h, 30 min) it was 100%; in series [3] (4 h, 4 h) it was 0%. In series [1], the “anti-MES protecting ability” value is “showed anti-MES protecting ability”. Besides, the “Tox, animals toxic/tested” value in the series “in vivo” is 0/4. Further, the minimal effective dose in the series on seizures was under 100 mg/kg. In addition, the responders at 50 mg/kg in series [2] (0.5 h, 0.50 h) was 100%; in series [2] (0.25 h), 100%; in series [2] (1.00 h), 100%; in series [2] (2.00 h), 100%; in series [2] (4.00 h), 100%.
Regarding `CC1CC(=O)C=C(Nc2ccc(Cl)cc2)C1` (stereo not drawn) [Compound 146, 3-[(p-Chlorophenyl)amino]-5-methyl-2-cyclohexen-1-one], the responders at 100 mg/kg in series [1] (0.5 h, 30 min) is 100%; in series [1] (4 h, 4 h), 0%; in series [3] (0.5 h, 30 min), 0%; in series [3] (4 h, 4 h) it was 0%. For the same molecule, the responders at 300 mg/kg in series [1] (0.5 h, 30 min) is 100%; in series [1] (4 h, 4 h) it was 100%; in series [3] (0.5 h, 30 min), 40%; in series [3] (4 h, 4 h) it was 0%. Further, in “in vivo”, the “Tox, animals toxic/tested” value is reported as 0/4. In the series on seizures, the minimal effective dose is under 100 mg/kg. Moreover, the responders at 50 mg/kg in series [2] (0.5 h, 0.50 h) was 75%; in series [2] (0.25 h) it was 25%; in series [2] (1.00 h), 100%; in series [2] (2.00 h), 100%; in series [2] (4.00 h), 50%.
With `O=C1C=C(Nc2ccc(Cl)cc2)CCC1` [Compound 147], the responders at 100 mg/kg in series [1] (0.5 h, 30 min) was 100%; in series [1] (4 h, 4 h), 0%; in series [3] (0.5 h, 30 min) it was 0%; in series [3] (4 h, 4 h), 0%. The responders at 300 mg/kg is 100% in series [1] (0.5 h, 30 min); 100% in series [1] (4 h, 4 h); 0% in series [3] (0.5 h, 30 min); 0% in series [3] (4 h, 4 h). In addition, the “Tox, animals toxic/tested” value in the series “in vivo” is recorded as 0/4. For the same molecule, the minimal effective dose with seizures is under 100 mg/kg. Moreover, the responders at 50 mg/kg in series [2] (0.5 h, 0.50 h) is 100%; in series [2] (0.25 h), 75%; in series [2] (1.00 h), 50%; in series [2] (2.00 h) it was 25%; in series [2] (4.00 h) it was 25%.
On to `CCOC(=O)C1C(=O)C=C(Nc2ccc(F)cc2)CC1C` (stereo not drawn) [Compound 124], for which the responders at 100 mg/kg in series [1] (0.5 h, 30 min) was 100%; in series [1] (4 h, 4 h), 0%; in series [3] (0.5 h, 30 min), 0%; in series [3] (4 h, 4 h), 0%. Moreover, the responders at 300 mg/kg in series [1] (0.5 h, 30 min) is 100%; in series [1] (4 h, 4 h), 0%; in series [3] (0.5 h, 30 min, second trial) it was 50%; in series [3] (0.5 h, 30 min) it was 100%; in series [3] (4 h, 4 h), 0%. Also, in “in vivo”, the “Tox, animals toxic/tested” value is listed as 0/4. Also, the minimal effective dose with seizures was under 100 mg/kg. Moreover, the responders at 50 mg/kg in series [2] (0.5 h, 0.50 h) was 100%; in series [2] (0.25 h) it was 100%; in series [2] (1.00 h), 100%; in series [2] (2.00 h), 100%; in series [2] (4.00 h), 75%.
As to `COC(=O)C1C(=O)C=C(NCc2ccc(F)cc2)CC1C` (stereo not drawn) [Compound 21], the responders at 300 mg/kg is 0% in series [1] (0.5 h, 30 min); 100% in series [1] (4 h, 4 h); 0% in series [3] (0.5 h, 30 min); 0% in series [3] (4 h, 4 h). In addition, the “activity in Phase II evaluation” value in series [1] (substituted benzylamines) was “significant activity”. In the series “in vivo”, this molecule displayed a TD50 of over 230 mg/kg. For the same molecule, the selectivity ratio in the series “in vivo” is 4.7. Also, the “Tox, animals toxic/tested” value in “in vivo” is on record as 0/4. Also, in the series on seizures, the minimal effective dose was over 100 mg/kg. The “activity compared with 12” value with seizures (substituted benzylamines) is “only a slight modification in activity”. Further, the ED50 – broadly, the midpoint of the dose-response relation – in series [2] (Phase VI, rat) came to 49.3 mg/kg. The responders at 50 mg/kg in series [2] (0.5 h, 0.50 h) was 50%; in series [2] (0.25 h), 50%; in series [2] (1.00 h), 25%; in series [2] (2.00 h), 50%; in series [2] (4.00 h), 75%.
As for `CCOC(=O)C1C(=O)C=C(Nc2ccc(C(C)(C)C)cc2)CC1C` (stereo not drawn) [Compound 130], the responders at 10 mg/kg is 100% in series [1] (0.25 h, 0.25 h); 75% in series [1] (0.5 h, 0.50 h); 50% in series [1] (1 h, 1.00 h); 0% in series [1] (2 h, 2.00 h); 0% in series [1] (4 h, 4.00 h). Moreover, the responders at 100 mg/kg in series [1] (0.5 h, 30 min) is 33.3%; in series [1] (4 h, 4 h), 0%; in series [3] (0.5 h, 30 min) it was 0%; in series [3] (4 h, 4 h) it was 0%. For the same molecule, the responders at 300 mg/kg is 100% in series [1] (0.5 h, 30 min); 0% in series [1] (4 h, 4 h); 0% in series [3] (0.5 h, 30 min); 0% in series [3] (4 h, 4 h). The “anti-MES protecting ability” value in series [1] is reported as “showed anti-MES protecting ability”. The “Tox, animals toxic/tested” value in “in vivo” is reported as 0/4. Moreover, in the series on seizures, the minimal effective dose is under 100 mg/kg. Moreover, the responders at 50 mg/kg in series [2] (0.5 h, 0.50 h) was 25%; in series [2] (0.25 h), 25%; in series [2] (1.00 h), 50%; in series [2] (2.00 h) it was 75%; in series [2] (4.00 h), 25%.
As for `CC1(C)CC(=O)C=C(Nc2ccc([N+](=O)[O-])cc2)C1` [Compound 138], the responders at 100 mg/kg in series [1] (0.5 h, 30 min) was 33.3%; in series [1] (4 h, 4 h), 0%; in series [3] (0.5 h, 30 min) it was 0%; in series [3] (4 h, 4 h), 0%. In addition, the responders at 300 mg/kg in series [1] (0.5 h, 30 min) was 100%; in series [1] (4 h, 4 h) it was 0%; in series [3] (0.5 h, 30 min), 0%; in series [3] (4 h, 4 h), 0%. Further, the “Tox, animals toxic/tested” value in “in vivo” is recorded as 0/4. Besides, the minimal effective dose with seizures is under 100 mg/kg. The responders at 50 mg/kg was 0% in series [2] (0.5 h, 0.50 h); 0% in series [2] (0.25 h); 0% in series [2] (1.00 h); 50% in series [2] (2.00 h); 0% in series [2] (4.00 h).

Values taken from US5616615A, “Enaminone esters” (priority 1995, dated 1997).
